# The source made the active and inactive calls. The calls are words filed in the database; no cut-off is given here.
# Key:
# HT-22 [1] = assay: Neuroprotective activity against amyloid beta (1 to 42 residues)-induced cell death in mouse HT22 cells assessed as increase in cell viability at 5 uM after 24 hrs by MTT assay (reference value: 51.2%); type: functional
# [2] = target: Beta-secretase 1 (Homo sapiens) (UniProt P56817); assay: Inhibition of BACE1 (unknown origin) at 10 uM measured after 60 mins by FRET assay
# Sequence of Beta-secretase 1 (Homo sapiens) (P56817 whole entry, the tested form may be a part): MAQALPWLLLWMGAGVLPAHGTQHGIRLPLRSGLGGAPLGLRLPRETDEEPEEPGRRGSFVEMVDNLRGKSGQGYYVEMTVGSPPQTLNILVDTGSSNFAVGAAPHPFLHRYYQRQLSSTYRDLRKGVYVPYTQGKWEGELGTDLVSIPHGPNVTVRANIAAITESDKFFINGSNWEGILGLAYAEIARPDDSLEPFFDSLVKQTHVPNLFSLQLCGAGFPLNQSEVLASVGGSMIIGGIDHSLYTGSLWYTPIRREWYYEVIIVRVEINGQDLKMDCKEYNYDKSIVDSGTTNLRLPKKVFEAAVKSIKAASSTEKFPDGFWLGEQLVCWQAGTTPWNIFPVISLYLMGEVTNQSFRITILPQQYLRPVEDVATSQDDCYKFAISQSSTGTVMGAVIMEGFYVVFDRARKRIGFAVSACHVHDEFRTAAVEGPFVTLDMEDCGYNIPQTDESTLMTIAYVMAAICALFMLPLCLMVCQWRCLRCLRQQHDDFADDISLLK
# HT-22 [3] = assay: Neuroprotective activity against glutamate-induced cell death in mouse HT22 cells assessed as increase in cell viability at 40 uM preincubated for 6 hrs followed by glutamate-challenge and measured after 16 hrs by MTT assay relative to control; type: functional
# BV-2 [4] = assay: Cytotoxicity against mouse BV2 cells assessed as reduction in cell viability at 40 uM after 18 hrs by MTT assay; type: cell-based; conditions: bv-2, 18 h
# [5] = target: Beta-secretase 1 (Homo sapiens) (UniProt P56817); assay: Inhibition of BACE1 (unknown origin) at 20 uM measured after 60 mins by FRET assay relative to control
# BV-2 [6] = assay: Anti-neuroinflammatory activity in mouse BV-2 cells assessed as reduction in amyloid beta (1 to 42 residues)-induced nitric oxide at 40 uM after 18 hrs; type: functional, cell-based
# HT-22 [7] = assay: Neuroprotective activity in mouse HT-22 cells assessed as reduction in amyloid beta (1 to 42 residues)-induced glutamate level at 40 uM after 24 hrs by fluorescence assay (reference value: 3.17); type: functional
# HT-22 [8] = assay: Neuroprotective activity against in amyloid beta (1 to 42) transfected mouse HT22 cells assessed as reduction in overexpression of the green fluorescent pEGFP-C1 gene at 40 uM after 24 hrs by reporter gene assay; type: functional, cell-based
# HT-22 [9] = assay: Neuroprotective activity against amyloid beta (1 to 42) transfected mouse HT22-ARE cells assessed as reversal of increase in antioxidant response element-luciferase activity at 40 uM after 18 hrs by reporter gene assay; type: functional, cell-based
# HT-22 [10] = assay: Neuroprotective activity against amyloid beta (1 to 42) transfected mouse HT-22 cells assessed as protection against amyloid-induced inflammation at 40 uM after 24 hrs by MTT assay; type: functional, cell-based
# HT-22 [11] = assay: Cytotoxicity against mouse HT-22 cells assessed as reduction in cell viability at 40 uM after 24 hrs by MTT assay; type: cell-based; conditions: ht-22, 24 h
# HT-22 [12] = assay: Neuroprotective activity against amyloid beta (1 to 42 residues)-induced cell death in mouse HT22 cells assessed as increase in cell viability at 20 uM after 24 hrs by MTT assay (reference value: 51.2%); type: functional
# HT-22 [13] = assay: Neuroprotective activity against amyloid beta (1 to 42 residues)-induced cell death in mouse HT22 cells assessed as increase in cell viability at 1 uM after 24 hrs by MTT assay (reference value: 51.2%); type: functional
compound,measurement,setting,value
CC1(C)CC[C@]2(C(=O)O)CC[C@]3(C)C(=CC[C@@H]4[C@@]5(C)CC[C@H](O)C(C)(C)C5CC[C@]43C)[C@@H]2C1 (some centres undefined),Activity,HT-22 [1],58.6%
O=c1c(O)c(-c2ccc(O)c(O)c2)oc2cc(O)cc(O)c12,inhibition,[2],Active
CC1(CO)CC[C@]2(O)C(=O)C[C@]3(C)C(=CC[C@@H]4[C@@]5(C)CCC(=O)C(C)(C)[C@@H]5CC[C@]43C)[C@@H]2C1 (some centres undefined),Activity,HT-22 [3],81.2%
same,Activity,BV-2 [4],Non-Toxic
same,inhibition,[5],60.6%
same,Activity,BV-2 [6],Active
same,fold change (FC),HT-22 [7],1.81
same,inhibition,[2],Active
same,Activity,HT-22 [8],Active
same,Activity,HT-22 [9],Active
same,Activity,HT-22 [10],Active
same,Activity,HT-22 [11],Non-Toxic
CO[C@@H]1C=C2[C@@H]3CC(C)(C)CC[C@]3(O)C(=O)C[C@@]2(C)[C@]2(C)CC[C@H]3C(C)(C)C(=O)C[C@@H](O)[C@]3(C)[C@@H]12,Activity,HT-22 [3],77%
same,Activity,BV-2 [4],Non-Toxic
same,inhibition,[5],51.9%
same,Activity,BV-2 [6],Active
same,fold change (FC),HT-22 [7],1.61
same,inhibition,[2],Active
same,Activity,HT-22 [8],Active
same,Activity,HT-22 [9],Active
same,Activity,HT-22 [10],Active
same,Activity,HT-22 [11],Non-Toxic
CC1(C)CC[C@]2(O)C(=O)C[C@]3(C)C(=CC[C@@H]4[C@@]5(C)CC[C@H](O[C@@H]6O[C@H](CO)[C@@H](O)[C@H](O[C@@H]7O[C@H](CO)[C@@H](O)[C@H](O)[C@H]7O[C@@H]7O[C@H](CO)[C@@H](O)[C@H](O)[C@H]7O)[C@H]6O[C@H]6O[C@@H](CO)[C@H](O)[C@@H](O)[C@@H]6O)C(C)(C)[C@@H]5CC[C@]43C)[C@@H]2C1,Activity,HT-22 [1],68.9%
CC1(C)CC[C@]2(C(=O)O)C(=O)C[C@]3(C)C(=CC[C@@H]4[C@@]5(C)CC[C@H](O[C@@H]6O[C@H](C(=O)O)[C@@H](O)[C@H](O[C@@H]7O[C@H](CO)[C@@H](O)[C@H](O)[C@H]7O[C@@H]7O[C@H](CO)[C@@H](O)[C@H](O)[C@H]7O)[C@H]6O[C@H]6O[C@@H](CO)[C@H](O)[C@@H](O)[C@@H]6O)C(C)(C)[C@@H]5CC[C@]43C)[C@@H]2C1,Activity,HT-22 [12],61.7%
C=C(C)[C@@H]1C[C@H](O)[C@]2(C)[C@H](CC=C3[C@@H]4C[C@](C)(CO)CC[C@]4(O)C(=O)C[C@]32C)[C@@]1(C)CCC(=O)OC,Activity,BV-2 [4],Non-Toxic
same,Activity,HT-22 [11],Non-Toxic
CC(=O)O[C@H]1CC[C@]2(C)[C@H]3C=CC4=C5CC(C)(C)CC[C@]5(C(=O)O)CC[C@@]4(C)[C@]3(C)CC[C@H]2C1(C)C,Activity,HT-22 [13],68.9%
CC1(C)CC[C@]2(O)C(=O)C[C@]3(C)C(=CC[C@@H]4[C@@]5(C)CC[C@H](O[C@@H]6O[C@H](C(=O)O)[C@@H](O)[C@H](O[C@@H]7O[C@H](CO)[C@@H](O)[C@H](O)[C@H]7O[C@@H]7O[C@H](CO)[C@@H](O)[C@H](O)[C@H]7O)[C@H]6O)C(C)(C)[C@@H]5CC[C@]43C)[C@@H]2C1,Activity,HT-22 [12],68.9%
CC1(C)CC[C@]2(O)[C@H](O)C[C@]3(C)C(=CC[C@@H]4[C@@]5(C)CC[C@H](O)C(C)(C)[C@@H]5CC[C@]43C)[C@@H]2C1,Activity,HT-22 [13],61.9%
CC1(C)CCC2C(=O)C[C@]3(C)C(=C2C1)C=C[C@@H]1[C@@]2(C)CC[C@H](O)C(C)(C)C2CC[C@]13C (some centres undefined),Activity,HT-22 [1],68.9%
CC1(C)CC[C@]2(O)C(=O)C[C@]3(C)C(=CC[C@@H]4[C@@]5(C)CC[C@H](O[C@@H]6O[C@H](C(=O)O)[C@@H](O)[C@H](O[C@@H]7O[C@H](CO)[C@@H](O)[C@H](O)[C@H]7O[C@@H]7O[C@H](CO)[C@@H](O)[C@H](O)[C@H]7O)[C@H]6O[C@H]6O[C@@H](CO)[C@H](O)[C@@H](O)[C@@H]6O)C(C)(C)[C@@H]5CC[C@]43C)[C@@H]2C1,Activity,HT-22 [1],68.9%
CO[C@@H]1C=C2[C@@H]3CC(C)(C)CC[C@]3(O)C(=O)C[C@@]2(C)[C@]2(C)CC[C@H]3C(C)(C)C(=O)C=C[C@]3(C)[C@@H]12,Activity,HT-22 [3],73.8%
same,Activity,BV-2 [4],Non-Toxic
same,inhibition,[5],61.3%
same,Activity,BV-2 [6],Active
same,fold change (FC),HT-22 [7],1.8
same,inhibition,[2],Active
same,Activity,HT-22 [8],Active
same,Activity,HT-22 [9],Active
same,Activity,HT-22 [10],Active
same,Activity,HT-22 [11],Non-Toxic
CC1(C)CC[C@]2(CO)[C@H](O)C[C@]3(C)C(=CC[C@@H]4[C@@]5(C)CC[C@H](O)C(C)(C)[C@@H]5CC[C@]43C)[C@@H]2C1 [PRIMULAGENIN],Activity,HT-22 [13],60.5%
COC(=O)CC[C@@]1(C)C(C(C)(C)O)C[C@H](O)[C@]2(C)[C@@H]1CC=C1[C@@H]3CC(C)(C)CC[C@]3(O)C(=O)C[C@]12C (some centres undefined),Activity,HT-22 [12],68.9%
CC(C)(O)C1CC[C@]2(C)[C@H](CC=C3[C@@H]4C[C@](C)(CO)CC[C@]4(O)C(=O)C[C@]32C)[C@@]1(C)CCC(=O)O (some centres undefined),Activity,HT-22 [12],68.9%
CC1(C)CC[C@]2(CO)C(=O)C[C@]3(C)C(=CC[C@@H]4[C@@]5(C)CC[C@H](O[C@@H]6O[C@H](C(=O)O)[C@@H](O)[C@H](O)[C@H]6O)C(C)(C)[C@@H]5CC[C@]43C)[C@@H]2C1,Activity,HT-22 [12],55.5%
COC(=O)CC[C@@]1(C)C(C(C)(C)O)C[C@H](O)[C@]2(C)[C@@H]1CC=C1[C@@H]3C[C@](C)(CO)CC[C@]3(O)C(=O)C[C@]12C (some centres undefined),Activity,HT-22 [12],68.9%
CC1(C)CC[C@]2(O)C(=O)C[C@]3(C)C(=CC[C@@H]4[C@@]5(C)CCC(=O)C(C)(C)[C@@H]5CC[C@]43C)[C@@H]2C1,Activity,HT-22 [12],68.9%
CC1(C)CC[C@]2(O)C(=O)C[C@]3(C)C(=C[C@@H](O)[C@@H]4[C@@]5(C)[C@H](O)CC(=O)C(C)(C)[C@@H]5CC[C@]43C)[C@@H]2C1,Activity,HT-22 [3],78.1%
same,Activity,BV-2 [4],Non-Toxic
same,inhibition,[5],51.1%
same,Activity,BV-2 [6],Active
same,fold change (FC),HT-22 [7],1.42
same,inhibition,[2],Active
same,Activity,HT-22 [8],Active
same,Activity,HT-22 [9],Active
same,Activity,HT-22 [10],Active
same,Activity,HT-22 [11],Non-Toxic
CC1(C)CC[C@]2(O)C(=O)C[C@]3(C)C(=CC[C@@H]4[C@@]5(C)CC[C@H](O)C(C)(C)[C@@H]5CC[C@]43C)[C@@H]2C1,Activity,HT-22 [13],68.9%
CC(=O)O[C@H]1CC[C@@]2(C)C(CC[C@]3(C)[C@@H]2C(=O)C=C2[C@@H]4CC(C)(C)CC[C@]4(C)CC[C@]23C)C1(C)C (some centres undefined),Activity,HT-22 [1],68.9%
CC(C)(O)C1C[C@H](O)[C@]2(C)[C@H](CC=C3[C@@H]4C[C@](C)(CO)CC[C@]4(O)C(=O)C[C@]32C)[C@@]1(C)CCC(=O)O (some centres undefined),Activity,HT-22 [12],68.9%
CCCCOC(=O)CC[C@]1(C)[C@H]2CC=C3[C@@H]4C[C@](C)(CO)CC[C@]4(O)C(=O)C[C@@]3(C)[C@]2(C)[C@@H](O)C[C@H]1C(C)(C)O,Activity,BV-2 [4],Non-Toxic
same,Activity,HT-22 [11],Non-Toxic
C=C(C)C1CC[C@]2(C)[C@H](CC=C3[C@@H]4C[C@](C)(CO)CC[C@]4(O)C(=O)C[C@]32C)[C@@]1(C)CCC(=O)O (some centres undefined),Activity,HT-22 [12],68.9%
COC(=O)CC[C@@]1(C)C(C(C)(C)O)CC[C@]2(C)[C@@H]1CC=C1[C@@H]3C[C@](C)(CO)CC[C@]3(CO)C(=O)C[C@]12C (some centres undefined),Activity,HT-22 [12],68.9%
CC1(C)CC[C@]2(O)C(=O)C[C@]3(C)C(=CC[C@@H]4[C@@]5(C)CC[C@H](O[C@@H]6O[C@H](C(=O)O)[C@@H](O)[C@H](O)[C@H]6O)C(C)(C)[C@@H]5CC[C@]43C)[C@@H]2C1,Activity,HT-22 [1],68.9%
CCOC(=O)[C@H]1O[C@@H](O[C@H]2CC[C@]3(C)[C@H]4CC=C5[C@@H]6CC(C)(C)CC[C@]6(O)C(=O)C[C@@]5(C)[C@]4(C)CC[C@H]3C2(C)C)[C@H](O)[C@@H](O)[C@@H]1O,Activity,HT-22 [13],68.9%
CC1(C)CC[C@]2(C(=O)O)C(=O)C[C@]3(C)C(=CC[C@@H]4[C@@]5(C)CC[C@H](O[C@@H]6O[C@H](C(=O)O)[C@@H](O)[C@H](O)[C@H]6O)C(C)(C)[C@@H]5CC[C@]43C)[C@@H]2C1,Activity,HT-22 [12],72%
COC(=O)CC[C@@]1(C)C(C(C)(C)O)CC[C@]2(C)[C@@H]1CC=C1[C@@H]3C[C@](C)(CO)CC[C@]3(O)C(=O)C[C@]12C (some centres undefined),Activity,HT-22 [12],68.9%
CC(=O)O[C@H]1CC[C@]2(C)[C@H]3CC=C4[C@@H]5CC(C)(C)CC[C@]5(C(=O)O)CC[C@@]4(C)[C@]3(C)CC[C@H]2C1(C)C [ACETYL OLEANOLIC ACID],Activity,HT-22 [13],56.3%

# From ChEMBL document CHEMBL4665685, “Neuroprotective Effects of Triterpenoids from Camellia japonica against Amyloid β-Induced Neuronal Damage” (J Nat Prod, 2020)
